Patent US10689415B2, “Conjugates of RGD peptides and (bacterio)chlorophyll photosensitizers” (YEDA RESEARCH AND DEVELOPMENT COMPANY LTD., priority 2006, dated 2020)
Each block holds one molecule with its values, some of them ahead of it.

How the values were obtained:
[1] = test system: orthotopic human breast MDA-MB-231-RFP primary tumor; test: Whole-body NIR fluorescence imaging of accumulation in orthotopic MDA-MB-231-RFP tumor; assay type: in vivo, CD-1 nude female mice; conditions: for accumulation in the tumor (NIR fluorescence): 15 mg/kg i.v.
Protocol: RFP fluorescence, in units of photons/sec, was detected using 525/50 nm and 612/75 nm filter sets for excitation and emission, respectively, with one second integration time. NIR fluorescence of the different photosensitizers, in units of photons/sec, was detected using 680/30 nm and 847/75 nm filter sets for excitation and emission, respectively, at an integration time of five seconds. Background fluorescence for all quantitative analyses was calculated by recording the average fluorescence (photons/sec)/cm^2 from three animals in three different areas around and within the tumor of untreated animals provided with a similar diet for three days before measurements. Drug accumulation was determined following i.v. administration of molar equivalents of the photosensitizer to the tail vein of mice fed with a chlorophyll-free, purified diet for three days before administration (in order to reduce skin and food autofluorescence). Before imaging, mice were anesthetized by intraperitoneum injection of a 30 μl mixture of 85:15 ketamine:xylazine.
In order to study the accumulation of the photosensitizer in primary mammary tumors, the MDA-MB-231-RFP cells (4×10^6) were implanted orthotopicaly in the mammary pad of the mice. Tumors developed to the wanted size, bigger than 1 cm^3, within 3-4 weeks.
Tumor imaging main filter set comprised: excitation filter 500-550 nm, emission filter 575-650 nm; Background filter set for subtraction the tissue auto fluorescence: excitation filter 460-490 nm, emission filter 575-650 nm. Photosensitizer imaging main filter set: excitation filter 665-695 nm, emission filter 810-875 nm.
Images were taken at these time points post drug injection: 15 min, 1, 2, 3, 4.5, 6, 7.5, 9, 24 hr, 2, 3, 4, 5, 6, 7 days.

[2] = test system: large MDA-MB-231-RFP tumors; test: Biodistribution and pharmacokinetics (fluorescence of tissue extracts) in MDA-MB-231-RFP tumor-bearing mice; assay type: in vivo, CD-1 nude female mice
Protocol: Mammary fat pads (left, bottom nipple) of female mice were inoculated with harvested MDA-MB-231-RFP human breast cancer cells (4×10^6 in […] saline). Tumors were classified as ‘small’ (˜100 mm^3) at one to two weeks from time of cell injection, or ‘large’ after three to four weeks (necrotic tumors, 250 to 500 mm^3). To avoid tumor burden, mice were sacrificed (cervical dislocation) when tumor size reached 10% of body weight or at 90 days post-implantation. External caliper measurements, length (L), width (W) and depth (D) were used to calculate in vivo tumor volume according to the formula: V=L/2·W/2·D/2·π·4/3.
Anesthetized mice were i.v. injected (tail vein) with the different photosensitizer (pigment) conjugates (control group: untreated). The mice were sacrificed at indicated time points and samples of the indicated organs and tissues (blood, tumor, intestine, liver, spleen, kidneys, testies, heart, lung, brain, skin, muscle and fat) were placed in pre-weighted vials and immediately frozen and stored at −20° in the dark until analyzed. Three methods were used for sample preparation: (1) Each sample was thawed and homogenized in DDW (1:10 w/v). Aliquots of the homogenate (500 μl) were lyophilized in Eppendorf test tubes. Then, 60 μl of HNO3 (70%, TraceSelect, Fluka) were added to each dry sample, incubated for 1 h at 90° C. and diluted with DDW to 3 ml. (2) Each sample was diluted (1:2 w/v) in HNO3 (70%, TraceSelect, Fluka). The samples were sonicated for 30 min in boiled water, and left for at least 48 h at room temperature. (3) Applied for assessment of non-metalated conjugates. Each sample was thawed and homogenized in methanol (100 mg tissue/ml) and extracted the next morning by centrifugation (13,000×g, five minutes) at room temperature. In methods (1) and (2), 140 μl from each sample was added to 3.36 ml DDW to give total volume of 3.5 ml and incubated for 1 h at 90° C. Pd concentrations were determined by ICP-MS. According to method (3), the supernatants were diluted in methanol by a factor of two and the drug concentration was determined by fluorescence measurements (Varian-Cary Eclipse spectrofluorimeter, Palo Alto, Calif., USA) at 750 nm (peak values). Drug concentrations were interpolated from a fluorescence calibration curve, based on predetermined drug concentrations using absorption spectroscopy.

H5V endothelial cells = test: Phototoxicity assay (Neutral Red cell viability after illumination); assay type: cell-based, mouse
Protocol: The light source for in vitro studies was home-built 100-W halogen lamp equipped with a high-pass filter (>650 nm, Safelight filter 1A Eastman Kodak Co., Rochester, N.Y., USA) and a 4-cm water filter. The lamp was used to illuminate (20 mW/cm^2/10 min (12 J/cm^2)) the culture plates from the bottom at room temperature in a dark room.
To determine the pigment photodynamic efficacy in vitro under standard conditions, cells were cultured in 96-well plates and preincubated for 15 or 90 min at 37° C. or 4° C., according to the indicated experiment protocol, with 0-25 μM conjugated or non-conjugated photosensitizer in different media conditions (culture medium DMEM/F12; 10% FCS in medium or 10 μM BSA in medium) in the absence or presence of excess free peptide (100 fold up to 1 mM). The cells were washed and illuminated (20 mW/cm^2 for 10 min). Plates were placed back in the culture incubator for 24 h. Cell survival was determined using Neutral Red cell viability assay. Cell survival was calculated as the percent of the dye accumulated in the untreated controls. […] Three kinds of controls were used: (i) light control: cells illuminated in the absence of pigments; (ii) dark control: cells treated with pigments but kept in the dark; and (iii) untreated cells that were kept in the dark.
Following photosensitization and a 24-h incubation period (37° C.), cell survival was determined by Neutral Red (Fluka Chemie, Buchs, Switzerland) accumulation. After subtraction of assay blanks, net optical density (570 nm) was computed as the average value of triplicates determinations. Cell survival was calculated as the percent of the dye accumulated in the untreated controls.
H5V cells were incubated for 90 min at 37° C. with 0-25 μM of conjugate 23 or compound 10 in different media conditions, illuminated and their survival was determined using Neutral Red viability assay as described in Materials and Methods.
Targeted phototoxicity is defined as one inhibited by the free ligand. Thus, further experiments attempted to block phototoxicity by administration of the free cycloRGDfK, which competes for the cellular binding of conjugate 23. H5V cells were incubated for 90 min at 37° C. with 0-25 μM of compound 10 or conjugate 23 in different media (10% FCS in medium or 10 μM BSA in medium) in the absence or presence of free excess cycloRGDfK (100-fold up to 1 mM). The cells were illuminated and cell survival was determined using Neutral Red viability assay, as described above.
In order to test the endocytosis theory and since the endocytic process is time- and temperature-dependent, H5V cells were incubated at 37° C. and 4° C. for 15 min with 0-20 μM of conjugate 23 in medium containing 10% FCS, in the presence or absence of excess cycloRGDfK (100-fold up to 1 mM). Cells were illuminated and their survival was determined as described above.
The phototoxicity of conjugate 24 was determined by monitoring the survival of cultured H5V endothelial cells following PDT. H5V cells were incubated for 2 hours at 37° C. with 0-25 μM conjugate 24 in culture medium DMEM/F12 with 10% FCS. The cells were illuminated and their survival was determined as described above.
Cells were incubated for 90 min at 37° C. in the presence of 0-20 μM conjugate 11 or compound 8 in 10 μM BSA in medium, illuminated and their survival was determined as described above.

[3] = Solubilization for in vitro experiments (water solubility); assay type: physicochemical
Protocol: Compound 24 was dissolved in 100% DMSO before use and diluted in saline to a final DMSO concentration of 5% v/v.

[4] = test system: human mammary cancer MDA-MB-231-RFP xenografts; test: In vivo PDT of MDA-MB-231-RFP xenografts; parameters: species or system CD-1 nude male mice; conditions: 7.5 mg/kg i.v.
Protocol: For the PDT experiments, MDA-MB-231 RFP cells (4×10^6) were implanted subcutaneously on the backs of the mice and tumors developed to the treatment size (6-8 mm) within 2-3 weeks.
The tumors were illuminated for 10 min. The drug light interval used was 8 hr post drug injection. Transdermal illumination through the mouse skin with 755 nm diode laser at 100 mW/cm^2 (CeramOptec, Germany) was used. After the treatment, the mice were returned to the cage. […] In the light control group, the mice were illuminated for 10 min with 100 mW/cm^2. During the first 2 days post PDT, as needed, the mice received analgesia (2.5 mg/kg Flunexin daily) and 3 days Oxycode in the drinking water. The end point of animal survival is when the size of the tumor reaches 10% of animal weight. Mice are sacrificed at this time (up to 90 days) by cervical dislocation.
FIGS. 35A-35B show two representative examples to local response of human MDA-MB-231-RFP to PDT. […] 35A—Photographs taken from day 0 (before treatment) and after treatment at 1, 4, 7, 12 and 90 days. […] 35B—In vivo whole-body red fluorescence imaging of CD-1 nude male mice bearing MDA-MB-231-RFP orthotopic tumor.

CT26luc colon cancer = test: In vivo PDT (VTP) of CT26luc colon cancer; parameters: species or system CD-1 nude male mice; conditions: i.v. injected and illuminated after 8 hours
Protocol: CD-1 nude male mice bearing the different tumor xenografts were anesthetized and 24 (5-24 mg/kg body weight) or 8 (9 mg/kg body weight) were i.v. injected via the tail vein. The tumors were trans-cutaneously illuminated after 3.5, 6, 8, 12 and 24 hours for 5-30 min at light doses of 30-360 J/cm^2. Intensity of illumination: 100-200 mW/cm^2. After treatment, the mice were returned to the cage. The mice were considered cured if tumor free for 90 days after treatment. Mice were euthanized when the tumor diameter reached 15 mm. […] (5) Mixture of 8 and cycloRGDfK: the mice were i.v. injected with mixture of 8 with cycloRGDfK and illuminated after indicated time point. (6) cycloRGDfK alone: the mice were i.v. injected with cycloRGDfK and illuminated after indicated time point. Images were taken at indicated time post PDT.
FIGS. 32A-32F show the therapeutic results of applying 15 mg/kg, 10 min illumination (60 J/cm^2), 8 hours post injection of conjugate 24 to mice bearing CT26luc tumors (bolded protocol in Table 5). 32A—conjugate 24 was i.v. injected 15 mg/kg, 10 min illumination (60 J/cm^2) 8 hours post injection; 32B—overlaid images taken after i.p. injection of luciferin to the mouse described in 32A, using the IVIS system. The first image is black and white, which gives the photograph of the animal. The second image is color overlay of the emitted photon data. […]

MLS ovarian carcinoma = test: Fluorescence imaging, MLS ovarian carcinoma; assay type: in vivo, mice; conditions: 8 mg/kg i.v.
Protocol: Conjugate 26 (8 mg/kg) was i.v. injected into animals bearing MLS ovarian carcinoma. Images on IVIS were taken after 8 and 14 hours.

MDA-MB-231 breast tumor = test: Biodistribution (Cu by ICP-MS) in mice bearing MDA-MB-231 breast tumor; assay type: in vivo, female CD-1 nude mice
Protocol: The biodistribution of Cu-conjugate 15 was determined in female CD-1 nude mice of 6-8 weeks-old, weighing 20-23 g and bearing 6-9-mm^3 tumors of human adenocarcinoma cells obtained from breast tissue (MDA-MB-231 cells). The conjugate (30 mg/ml in 5% DMSO/PBS) was injected to the tail vein, and the animals were sacrificed in selected time points. Cu concentrations were determined by ICP-MS as described in Material and Methods.

Molecule: 3^1-oxo-15-methoxycarbonylmethyl-Rhodobacteriochlorin 13^1-(2-sulfoethyl)amide potassium salt [Compound 25, reference compound]
- specific tumor fluorescence ([1]; 9 mg/kg i.v., large necrotic tumors, one hour post injection): No specific tumor fluorescence
- accumulation in the tumor (tissue extracts) ([2]; 9 mg/kg i.v.): no accumulation of 25 in the tumor at any time longer than one hour post administration

Molecule: Palladium 3-oxo-15-methoxycarbonylmethyl-Rhodobacteriochlorin-13^1-(2,3-dihydroxypropyl)amide potassium salt [Compound 10]
- LD50 (H5V endothelial cells; 10 μM BSA in medium (90 min, 37° C.)): 3.5 to 5 µM
- LD50 (H5V endothelial cells; 10 μM BSA in medium (90 min, 37° C.), with free peptide in excess (cycloRGDfK)): 5 µM
- LD50 (H5V endothelial cells; 10% FCS (90 min, 37° C.)): 5 to 7 µM
- LD50 (H5V endothelial cells; 10% FCS (90 min, 37° C.), with free peptide in excess (cycloRGDfK)): 5 µM
- influence of excess cycloRGDfK on phototoxic effects (H5V endothelial cells; 90 min, 37° C., 100-fold up to 1 mM): not influenced by the presence of excess cycloRGDfK
- LD50 (H5V endothelial cells; culture medium (90 min, 37° C.)): 7 µM
- phototoxic effects (H5V endothelial cells; different media, 90 min, 37° C., 0-25 μM): light- and drug concentration-dependent
- water solubility [3]: Water insoluble

Molecule: 3^1-oxo-15-methoxycarbonylmethyl-Rhodobacteriochlorin 13^1-(2-sulfoethyl)amide-17^3-(cycloRGDfK)amide potassium salt [Conjugate 13]
- whole-body red fluorescence (tumor) signal after PDT ([4]; 90 days after treatment): No signal was detected 90 days after treatment
- local tumor response to PDT ([4]; illuminated 8 h later, 755 nm, 100 mW/cm^2, 10 min): after 90 days the wound healed and the animal was cured
- accumulation in the tumor (NIR fluorescence) ([1]; 15 min to 24 hr post injection, tumor size ~1 cm^3, potassium salt): no specific accumulation in the tumor during the first 24 hours
- accumulation in the tumor (NIR fluorescence) ([1]; day 1 to 6 post injection): reaching peak concentration specifically in the tumor from day 2 post injection
- peak concentration in the tumors ([2]; 15 mg/kg i.v.): 11 μg drug/gr tumor tissue
- peak tumor level as share of the initial drug dose ([2]; 15 mg/kg i.v.): about 3.0%
- time of peak concentrations in the tumors ([2]; 15 mg/kg i.v.): eight hours post-injection
- time to clear to nearly background levels in normal tissues ([2]; 15 mg/kg i.v.): less than 72 hours
- time of peak levels in the normal tissues examined ([2]; 15 mg/kg i.v., blood, liver, kidney): less than five minutes post-injection

- water solubility [3]: Water insoluble
Molecule: N=C(N)NCCC[C@@H]1NC(=O)[C@H](CCCCN)NC(=O)[C@@H](Cc2ccccc2)NC(=O)[C@H](CC(=O)O)NC(=O)CNC1=O [cycloRGDfK]
- PDT effect of controls (CT26luc colon cancer): no PDT effect

Molecule: 3^1-oxo-15-methoxycarbonylmethyl-Rhodobacteriochlorin 13^1-(2-sulfoethyl)amide-17^3-(GRGDSP)amide potassium salt [Conjugate 26]
- accumulation (fluorescence) (MLS ovarian carcinoma; 8 hours): did not present accumulation
- accumulation (fluorescence) (MLS ovarian carcinoma; 14 hours): a high level of fluorescence was observed in tumor and liver areas

Molecule: Copper(II) 3^1-oxo-15-methoxycarbonylmethyl-Rhodobacteriochlorin 13^1-(2-sulfoethyl)amide-17^3-(cycloRGDfK)amide potassium salt [Conjugate 15]
- tumor intensity in comparison with surrounding normal tissue (MDA-MB-231 breast tumor; at peak): about 3 fold
- time of peak accumulation in tumor after injection (MDA-MB-231 breast tumor; i.v. tail vein): 8 to 12 h
